Results taken from patent EP4151214A1, “RIMEGEPANT FOR TREATMENT OF HUMAN CORONAVIRUS INFECTION” (priority 2021, dated 2023).

Legend:
[1] = cited from earlier work
SARS-CoV-2 = assay type: cell-based
[2] = target: nsp14-nsp10 protein complex (Severe acute respiratory syndrome coronavirus 2, UniProt P0DTD1); test: nsp14 ExoN activity assay with nsp14-nsp10 complex (gel-based, 32P-labelled H4 RNA); assay type: biochemical, SARS-CoV-2
Experimental: (§1) Both RNAs were labelled at their 5' end with [^32P]-γ-ATP and T4 Polynucleotide Kinase (Ambion) in a standard reaction. MicroSpin G-50 columns (Cytiva) were used to remove excess [^32P]-γ-ATP. The synthetic RNAs were resuspended in 10 mM of Tris-HCI pH 8.0 and incubated 10 min at 80°C followed by 45 min at 37°C. • Different concentrations (µM) of rimegepant were incubated with 300 nM of nsp15 or with 40 nM-160 nM of nsp14-nsp10 proteins (7 minutes at room temperature), before initiating the in vitro assay through the addition of the P^32-RNA substrate (50 nM). The activity assays were performed in a final volume of 12 µl containing the activity buffer 50 mM HEPES pH 7.4, 1 mM DTT, 5 mM MgCl2 in case of nsp14-nsp10 complex, and 25 mM HEPES pH 7.4, 50 mM NaCl, 1 mM DTT, 10 mM NaHPO4, 5 mM MnCl2 for nsp15. The reactions were incubated at 37°C, and then aliquots of 4 µl were withdrawn at the time-points indicated in the respective images. […] All the experiments were performed at least in triplicate. • Inhibition profile curves were calculated by quantification of gel-based RNase assays. […] The inhibitory effect of rimegepant on SARS-CoV-2 multiplication in Vero E6 cells was evaluated. […] In addition, the viability of cells in culture was assessed by measuring intracellular ATP levels, using a luminescent assay as described above (CellTiter-Glo® Luminescent Cell Viability Assay). […]

SARS-CoV-2 nsp15 = SARS-CoV-2 nsp15 (Severe acute respiratory syndrome coronavirus 2, UniProt P0DTD1); test: nsp15 endoribonuclease activity assay (gel-based, 32P-labelled 16-mer RNA); assay type: biochemical
Experimental: as §1

[3] = cited from earlier work; remark: listed apart in the source
CGRP receptor = target: T1, CGRP receptor (Homo sapiens, UniProt O60894+Q16602); conditions: orally disintegrating tablet; cited from earlier work
T1 construct: host or cells: human patients (clinical use)
T1 sequence (Q16602 23-461): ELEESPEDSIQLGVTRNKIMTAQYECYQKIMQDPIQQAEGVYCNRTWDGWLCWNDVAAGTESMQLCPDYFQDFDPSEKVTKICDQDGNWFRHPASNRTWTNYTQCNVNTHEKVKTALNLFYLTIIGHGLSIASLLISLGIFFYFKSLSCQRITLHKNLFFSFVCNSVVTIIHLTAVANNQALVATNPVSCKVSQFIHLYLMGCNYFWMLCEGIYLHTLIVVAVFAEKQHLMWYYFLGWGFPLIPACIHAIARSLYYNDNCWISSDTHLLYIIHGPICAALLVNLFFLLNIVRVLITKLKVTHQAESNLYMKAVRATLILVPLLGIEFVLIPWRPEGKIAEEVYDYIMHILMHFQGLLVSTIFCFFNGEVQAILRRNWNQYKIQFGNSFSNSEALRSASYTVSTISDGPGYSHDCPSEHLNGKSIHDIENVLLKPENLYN
T1 sequence (O60894 27-148): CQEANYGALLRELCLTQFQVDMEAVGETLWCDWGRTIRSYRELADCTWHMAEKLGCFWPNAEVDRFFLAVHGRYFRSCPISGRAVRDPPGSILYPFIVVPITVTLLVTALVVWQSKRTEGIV

## N[C@@H]1c2cccnc2[C@H](OC(=O)N2CCC(n3c(=O)[nH]c4ncccc43)CC2)CC[C@H]1c1cccc(F)c1F [rimegepant, Rimegepant]
[1]; Phase I clinical trials
  maximum tolerated dose (MTD): not found
[1]; for 14 days, without significant adverse events (Tong et al 2013)
  well tolerated multiple doses: up to 600 mg
[1]; healthy subjects, compared to placebo (Tong et al 2013)
  well tolerated single doses: up to 1500 mg
SARS-CoV-2; 175 µM of rimegepant
  duration of antiviral effect: 72 h
SARS-CoV-2; 175 µM, ATP levels
  rescue of Vero E6 cells infected with SARS-CoV-2: totally rescue the cells from the infection
[2]
  IC50: 1700 µM
SARS-CoV-2 nsp15
  IC50: 98.95 ± 0.28 µM
[3]; Phase I, without finding a maximum tolerated dose
  plasma concentrations achieved relative to those at 75 mg: 50 times
[3]; in vivo
  administered dose eliminated unchanged: Approximately 77%
  bioavailability: 64%
  elimination half-life: approximately 11 h
  major metabolites (i.e., > 10%) in plasma: no major metabolites
[3]; near the low predicted therapeutic dose of 75 mg, Phase I
  Cmax (maximum serum concentrations): 784 ng/mL
[3]; oral administration of the orally disintegrating tablet
  Tmax (maximum plasma concentrations achieved at): 1.5 h
CGRP receptor
  duration of effect after a single dose: up to 48 h
